Test results taken from article PMC5555576, “Selective small-chemical inhibitors of protein arginine methyltransferase 5 with anti-lung cancer activity” (PLoS ONE, 2017).

Tested on: PRMT5 F225M
Test: Radioactive methyltransferase assay, mutant PRMT5
Format: biochemical, human
Settings: Phe225 to Met
Procedure: Methylation reactions were performed as previously described with a few modifications. Reaction mixtures (40 μl) containing 1.2 μg of PRMT5, 98 ng of PRMT1 or 98 ng of PRMT3; 2 μg of SmD3 or histones; 1 μCi of S-[methyl-^3H]adenosylmethionine (H^3-AdoMet; PerkinElmer); and 5 μM AdoMet were incubated in 50 mM Tris-HCl (pH 7.5)–1 mM EGTA–1 mM EDTA at 30°C for 2 h. Reaction mixtures (20 μl) were boiled in 5 μl of 5x SDS sample buffer and separated on a 15% polyacrylamide gel. Gels were fixed for 30 min in 40% methanol–10% acetic acid, incubated in 20 ml of Amplify (Amersham Life Science) for 10 min, dried and exposed to X-ray film at -80°C. IC50 was calculated by linear regression analysis of percent inhibition. The other half (20 μl) of each reaction mixture was spread onto DE81 chromatography paper discs (Whatman). The paper discs were washed 4 times with 50 mM NaHCO3 and dried. The amounts of methylated products were quantified by liquid scintillation.
The inhibitory activity of the compounds may stem from this interaction. To test this possibility, we conducted site-directed mutagenesis to mutate Phe225 in human PRMT5 (corresponding to Phe379 in the C. elegans PRMT5) to Met. The mutated PRMT5 was expressed in bacteria and purified by Ni-nitrilotriacetic acid (Ni-NTA) affinity chromatography (Fig 4A). The activity of the mutant PRMT5 was examined by the radioactive methyltransferase assay. […] The IC50 values for the mutant PRMT5 increased from 4.3 to 183 folds higher than those for the wild type PRMT5 (Fig 4D). […] The results also can help explain the specificity of the compounds to PRMT5. However, the contribution of this interaction to inhibition varies among the compounds. For example, compound C2 interacts with three amino acid residues (Lys451, Glu450, and Phe379) (Fig 3A) with the mutation of Phe to Met resulting in a 50-times higher IC50 (Fig 4C and 4D).
Fig 4 The conserved phenylalanine residue in PRMT5 is critical for inhibition by the five compounds. A, DS-PAGE of recombinant wild type (WT) and F225M mutant (MT) PRMT5. The gel was stained with Coomassie Brilliant Blue R250. A band corresponding to an unknown bacterial protein is indicated (star). B, The F225M mutation increased the methytransferase activity of PRMT5. In vitro methylation reactions were performed with recombinant wild type (lanes 2–4) or mutant (lanes 5–7) PRMT5 (1.2, 2.4 or 4.8 μg) and SmD3 (2 μg) as the substrate. C, The F225M mutation in PRMT5 decreased inhibition of arginine methylation by the compounds. The reaction mixture contained SmD3 (2 μg); wild type or mutant PRMT5 (1.2 μg); and 1, 10 or 100 μM compounds as indicated. D, The F225M mutation in PRMT5 […] of the compounds, as determined by quantitation and analysis of methylation assay results. TEXT PRINTED IN THE PICTURE: (D) C2: IC50 (μM) PRMT5: 0.1; IC50 (μM) PRMT5 F225M: 5.0 | (D) C5: IC50 (μM) PRMT5: 0.8; IC50 (μM) PRMT5 F225M: 3.5 | (D) C6: IC50 (μM) PRMT5: 0.5; IC50 (μM) PRMT5 F225M: 7.0 | (D) C9: IC50 (μM) PRMT5: 6.0; IC50 (μM) PRMT5 F225M: 45.0 | (D) C11: IC50 (μM) PRMT5: 0.3; IC50 (μM) PRMT5 F225M: 55.0

Q: `CCn1c(=O)[nH]c2cc(C(=O)Nc3ccc(OC)cc3)ccc2c1=O` [Compound C5] was tested. Which “increase of IC50 for mutant PRMT5 over wild type PRMT5” value did it give?
A: 4.3 fold
